Where no end group is shown, it is not given here.
Key:
[1] = 200 μg/mL^−1; previous study; cited from earlier work
Excerpt: In this study, we confirmed that PN5 has antimicrobial activities against Gram-negative and Gram-positive bacteria, including MDR E. coli. The ASEC strains that were clinically isolated from patients, mentioned in Table S3 in the supplemental material, produced ESBL, which induces resistance to β-lactam antibiotics, and New Delhi metallo-β-lactamase (NDM), which hydrolyzes a class of carbapenems. […] The four PN peptides (PN5, PN7, PN8, and PN10) purified from pine ne ...

[2] = test system: A. baumannii KCTC 2508; assay type: cell-based, Acinetobacter baumannii; settings: microdilution, NB, 18 to 24 h, 37°C, three independent experiments
Protocol: (§1) Bacterial cells were cultured at 37°C in the appropriate culture media with shaking (180 rpm). Luria-Bertani broth (LB) (244620; BD Difco) was used for E. coli ATCC 25922, ASEC strains, and B. subtilis KCTC 2217. Nutrient broth (NB) (234000; BD Difco) was used for P. aeruginosa ATCC 27853, S. Typhimurium KCTC 1926, and A. baumannii KCTC 2508. Tryptic soy broth (TSB) (211825; BD Difco) was used for S. aureus ATCC 25923. Finally, brain heart infusion (BHI) (237500; BD Difco) was used for L. monocytogenes KCTC 3710. The antimicrobial activity of each peptide was determined using microdilution assays. To this end, 2-fold serial dilution series of each peptide (from 1 to 64 μM) were added to duplicate media with 10 mM sodium phosphate buffer (pH 7.4). Fifty microliters of the peptide and antibiotic solution was added to each well of a 96-well plate (32096, surface nontreatment; SPL Life Sciences). Then, 50 μL of 2 × 10^5 CFU mL^−1 of bacteria was added to each well, and the samples were incubated for 18 to 24 h without shaking at 37°C.

[3] = target: T1, elastase (Homo sapiens, UniProt P08246); experiment: Resistance to proteolytic degradation, RP-HPLC; assay type: in vitro ADME; settings: 50 μg PN5, 10 μg mL^−1 elastase, 0.1 M Tris-HCl pH 8.0, 37°C, 0 to 540 min; RP-HPLC C18, 214 nm
T1 construct: purchased Sigma-Aldrich 324681
Protocol: The stability of PN5 in the presence of the enzyme was measured by treatment with elastase. First, 10 μg mL^−1 elastase in 0.1 M Tris-HCl (pH 8.0) was incubated with 50 μg PN5 at 37°C with shaking (180 rpm), with aliquots collected at 0, 30, 60, 120, 360, 540, and 720 min. After incubation, each sample was observed by RP-HPLC with a Jupiter C18 column (4.6 by 250 mm, 300 Å, 5 μm). E. coli 25922 and S. aureus 25923 were cultured in LB and TSB media with shaking (180 rpm) at 37°C, washed twice with 10 mM sodium phosphate buffer (pH 7.4), suspended in 10 mL LB and TSB media at 2 × 10^5 CFU mL^−1, mixed with 0.2% agarose, and dried for 1 h. Paper disks (6 mm) were placed on the dried agarose, and 50 μg PN5 aliquots was dropped onto the disks. The disks were stored in a 37°C incubator for 24 h. PN5- and elastase (10 μg mL^−1)-treated PN5 was prepared to evaluate the susceptibility to E. coli 25922 and S. aureus 25923. PN5 (6.25, 12.5, 25, 50, and 100 μg) was diluted in 10 mM sodium phosphate buffer (pH 7.4) and 10 μg mL^−1 elastase. E. coli 25922 and S. aureus 25923 were prepared at 2 × 10^5 CFU mL^−1. Peptides with 10 μg mL^−1 elastase and bacteria were incubated for 9 h with shaking (180 rpm) and observed using a visible spectrophotometer (Pharmacia Biotech, Uppsala, Sweden) ([60]).

[4] = test system: S. aureus ATCC 25923; assay type: cell-based, Staphylococcus aureus; settings: microdilution, TSB, 18 to 24 h, 37°C, three independent experiments
Protocol: as §1

[5] = test system: E. coli ATCC 25922 biofilm; settings: 5 × 10^5 CFU mL^−1, 0.2% glucose, 24 h, 37°C, crystal violet A595, three independent experiments
Protocol: Crystal violet staining was performed to determine the degree of biofilm formation by the E. coli 25922, S. aureus 25923, and ASEC strains. E. coli 25922 and S. aureus 25923 were cultured overnight in LB and TSB media with aeration at 180 rpm, respectively. Bacterial suspensions with 0.2% glucose (5 × 10^5 CFU mL^−1) were added to a 96-well plate (30096, surface treatment; SPL Life Sciences) and incubated for 24 h at 37°C. The supernatant was removed and fixed with 100% methanol. Next, 100 μL of crystal violet was added to the plate and incubated to dye the cells for 1 h, followed by rinsing the cells three times with distilled water (dH2O). After the crystal violet was dissolved with 95% ethanol, the mass of biofilm formation at 595 nm was measured using a Versa Max microplate reader (Molecular Devices). The inhibitory effect of PN5 against biofilm formed by E. coli 25922, S. aureus 25923, and three MDR E. coli strains (ASEC 2, 16, and 18) were determined. These cells were cultured overnight in LB and TSB media. Bacterial suspensions (5 × 10^5 CFU mL^−1) containing 0.2% glucose were added to 96-well plates and PN5 was serially diluted to a final concentration of 32 μM. The minimal biofilm inhibitory concentration (MBIC) was determined in three independent experiments. The percentage of biofilm formation was measured using the equation (A595 of treated biofilm/A595 of untreated biofilm) × 100. Similarly, the MDR ASEC 1 to 19 strains were cultured overnight in LB medium and seeded into 96-well plates with medium containing 0.2% glucose at 5 × 10^5 CFU mL^−1 of the bacterial suspension. Biofilm staining was performed as described above. SYTO 9 (6 μM) fluorescence in LIVE/DEAD BacLight was used to visualize the degree of biofilm formation. […] After 24 h, the culture supernatant of the peptide and bacteria was discarded, and the pellet was fixed with 100% methanol. A fluorescence mixture of SYTO 9 and propidium iodide was then added to each well, and the fluorescence was evaluated with an EVOS FL color imaging system (Thermo Fisher Scientific) with a 4× objective ([22]).

[6] = test system: S. Typhimurium KCTC 1926; assay type: cell-based, Salmonella enterica serovar Typhimurium; settings: microdilution, NB, 18 to 24 h, 37°C, three independent experiments
Protocol: as §1

T1 sequence (P08246 30-267): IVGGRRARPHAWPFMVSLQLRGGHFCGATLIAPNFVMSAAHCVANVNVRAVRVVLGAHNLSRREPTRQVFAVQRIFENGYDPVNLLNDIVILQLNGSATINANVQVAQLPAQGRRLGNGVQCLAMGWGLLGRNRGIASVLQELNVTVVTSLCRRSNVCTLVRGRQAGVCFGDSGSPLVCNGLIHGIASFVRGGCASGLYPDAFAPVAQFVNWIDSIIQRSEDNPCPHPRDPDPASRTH

Substance: FKFLARTGKFL-NH2 [PN5]
- cytotoxicity [1]: less than 20%
- MIC [2]: 4 µM
- peak of residual peptide after incubation with elastase [3]: remained even after 9 h
- MIC [4]: 2 µM
- MBIC50 (minimum inhibitory concentration resulting in at least 50% inhibition of biofilm formation) [5]: 16 (21.22) μM
- MIC [6]: 2 µM
